In paper PMC3917699, “Glucoamylase of Caulobacter crescentus CB15: cloning and expression in Escherichia coli and functional identification” (AMB Express, 2014):

Biological target: T1, CauloGA (Protein A-CauloGA fusion) (Caulobacter vibrioides, UniProt Q9A613)
T1 construct: gene CC_2282; putative signal peptide removed; N-terminal Staphylococcus Protein A (synthetic ZZ domain) fusion kept; pEZZ18, E. coli HB101; IgG Sepharose; fusion 96 kDa, CauloGA about 82 kDa
Test: initial rate, glucose release (F-kit D-glucose), nonlinear regression
Format: biochemical
Settings: apparent substrate inhibition constant
Excerpt: initial rate, glucose release (F-kit D-glucose), nonlinear regression on CauloGA (Protein A-CauloGA fusion)

T1 sequence (Q9A613 entry or part of it): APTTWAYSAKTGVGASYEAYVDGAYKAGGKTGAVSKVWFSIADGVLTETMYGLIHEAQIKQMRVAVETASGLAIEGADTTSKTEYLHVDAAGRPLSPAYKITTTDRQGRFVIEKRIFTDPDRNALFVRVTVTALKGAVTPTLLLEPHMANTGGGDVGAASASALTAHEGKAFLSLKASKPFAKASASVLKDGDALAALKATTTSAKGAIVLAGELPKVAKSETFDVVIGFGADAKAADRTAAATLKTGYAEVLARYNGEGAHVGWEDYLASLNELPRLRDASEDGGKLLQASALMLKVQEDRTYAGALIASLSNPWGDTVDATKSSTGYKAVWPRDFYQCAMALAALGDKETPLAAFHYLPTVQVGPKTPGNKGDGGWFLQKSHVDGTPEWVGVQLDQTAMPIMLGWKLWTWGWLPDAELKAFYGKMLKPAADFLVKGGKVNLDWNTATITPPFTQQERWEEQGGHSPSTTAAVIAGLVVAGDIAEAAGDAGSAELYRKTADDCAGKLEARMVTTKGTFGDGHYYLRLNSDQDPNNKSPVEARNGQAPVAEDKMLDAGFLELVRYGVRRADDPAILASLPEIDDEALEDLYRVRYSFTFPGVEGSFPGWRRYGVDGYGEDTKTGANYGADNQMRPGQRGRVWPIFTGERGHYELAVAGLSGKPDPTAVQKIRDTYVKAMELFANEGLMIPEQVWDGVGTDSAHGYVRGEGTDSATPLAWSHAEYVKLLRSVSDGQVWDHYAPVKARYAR

Row | Ki^b (0-9 mM substrate, pH 5.0, 30°C) [µM] | SMILES | other results
1 | 920 ± 40 | OC[C@H]1O[C@H](O[C@H]2[C@H](O)[C@@H](O)[C@@H](O[C@H]3[C@H](O)[C@@H](O)[C@@H](O[C@H]4[C@H](O)[C@@H](O)[C@@H](O[C@H]5[C@H](O)[C@@H](O)C(O)O[C@@H]5CO)O[C@@H]4CO)O[C@@H]3CO)O[C@@H]2CO)[C@H](O)[C@@H](O)[C@@H]1O (stereo partly drawn) [Maltopentaose] | –
2 | – | OC[C@H]1O[C@H](O[C@H]2[C@H](O)[C@@H](O)C(O)O[C@@H]2CO)[C@H](O)[C@@H](O)[C@@H]1O (stereo partly drawn) [Maltose] | Ki^b (0-18 mM substrate, 50 mM acetate buffer pH 5.0, 30°C): 38200 ± 1110 µM
3 | 1250 ± 250 | OC[C@H]1O[C@H](O[C@H]2[C@H](O)[C@@H](O)[C@@H](O[C@H]3[C@H](O)[C@@H](O)[C@@H](O[C@H]4[C@H](O)[C@@H](O)[C@@H](O[C@H]5[C@H](O)[C@@H](O)[C@@H](O[C@H]6[C@H](O)[C@@H](O)[C@@H](O[C@H]7[C@H](O)[C@@H](O)C(O)O[C@@H]7CO)O[C@@H]6CO)O[C@@H]5CO)O[C@@H]4CO)O[C@@H]3CO)O[C@@H]2CO)[C@H](O)[C@@H](O)[C@@H]1O (stereo partly drawn) [Maltoheptaose] | –
4 | – | OC[C@H]1O[C@H](O[C@H]2[C@H](O)[C@@H](O)[C@@H](O[C@H]3[C@H](O)[C@@H](O)[C@@H](O[C@H]4[C@H](O)[C@@H](O)C(O)O[C@@H]4CO)O[C@@H]3CO)O[C@@H]2CO)[C@H](O)[C@@H](O)[C@@H]1O (stereo partly drawn) [Maltotetraose] | Ki^b (0-18 mM substrate, pH 5.0, 30°C): 1100 ± 60 µM
5 | – | OC[C@H]1O[C@H](O[C@H]2[C@H](O)[C@@H](O)[C@@H](O[C@H]3[C@H](O)[C@@H](O)C(O)O[C@@H]3CO)O[C@@H]2CO)[C@H](O)[C@@H](O)[C@@H]1O (stereo partly drawn) [Maltotriose] | Ki^b (0-18 mM substrate, pH 5.0, 30°C, text b46 prints approximately 4.2 mM): 4490 ± 310 µM
6 | 1050 ± 80 | OC[C@H]1O[C@H](O[C@H]2[C@H](O)[C@@H](O)[C@@H](O[C@H]3[C@H](O)[C@@H](O)[C@@H](O[C@H]4[C@H](O)[C@@H](O)[C@@H](O[C@H]5[C@H](O)[C@@H](O)[C@@H](O[C@H]6[C@H](O)[C@@H](O)C(O)O[C@@H]6CO)O[C@@H]5CO)O[C@@H]4CO)O[C@@H]3CO)O[C@@H]2CO)[C@H](O)[C@@H](O)[C@@H]1O (stereo partly drawn) [Maltohexaose] | –
